In ChEMBL document CHEMBL6087471, “A Collection of Novel Antitumor Agents That Regulate Lipid Metabolism in the Tumor Microenvironment” (J Med Chem, 2025) one finds IC50, Ki and EC50 data, which are given here for 29 compounds.

Experiment [1] can be described thus: Inhibition of ACC1 (unknown origin). On the set-up: species or system Homo sapiens.
The nature of experiment [2]: Inhibition of rat CPT2.
Experiment [3] deals with Autotaxin (Homo sapiens, UniProt Q13822).
Description: Inhibition of ATX (unknown origin)
Experiment [4] in a line: Inhibition of CPT1 (unknown origin). On the set-up: species or system Homo sapiens.
Experiment [5] can be described thus: Binding affinity to rat liver mitochondria CPT1 assessed as inhibition constant measured for 6 mins by Liquid scintillation counting method.
Experiment [6] deals with MCF7. In words: Antiproliferative activity against human MCF7 cells assessed as reduction in cell growth. Type of experiment: functional, cell-based.
Experiment [7] addresses T1, Diacylglycerol O-acyltransferase 2 (Homo sapiens, UniProt Q96PD7).
T1 sequence (Q96PD7 whole entry): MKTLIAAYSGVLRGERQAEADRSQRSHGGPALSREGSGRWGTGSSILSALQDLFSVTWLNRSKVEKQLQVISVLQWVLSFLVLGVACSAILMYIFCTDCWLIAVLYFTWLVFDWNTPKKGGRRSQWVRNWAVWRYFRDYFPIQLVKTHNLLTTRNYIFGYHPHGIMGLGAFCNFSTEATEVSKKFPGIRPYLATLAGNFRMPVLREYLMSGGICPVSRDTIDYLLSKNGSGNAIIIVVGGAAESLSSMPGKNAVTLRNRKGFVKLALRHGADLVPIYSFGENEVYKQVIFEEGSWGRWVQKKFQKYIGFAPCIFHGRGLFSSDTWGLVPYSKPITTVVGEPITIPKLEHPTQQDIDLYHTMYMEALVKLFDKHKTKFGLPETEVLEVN
In words: Inhibition of DGAT2 (unknown origin).

Experiment [8] concerns the target T2, Bile acid receptor (Homo sapiens, UniProt Q96RI1).
T2 sequence (Q96RI1 whole entry): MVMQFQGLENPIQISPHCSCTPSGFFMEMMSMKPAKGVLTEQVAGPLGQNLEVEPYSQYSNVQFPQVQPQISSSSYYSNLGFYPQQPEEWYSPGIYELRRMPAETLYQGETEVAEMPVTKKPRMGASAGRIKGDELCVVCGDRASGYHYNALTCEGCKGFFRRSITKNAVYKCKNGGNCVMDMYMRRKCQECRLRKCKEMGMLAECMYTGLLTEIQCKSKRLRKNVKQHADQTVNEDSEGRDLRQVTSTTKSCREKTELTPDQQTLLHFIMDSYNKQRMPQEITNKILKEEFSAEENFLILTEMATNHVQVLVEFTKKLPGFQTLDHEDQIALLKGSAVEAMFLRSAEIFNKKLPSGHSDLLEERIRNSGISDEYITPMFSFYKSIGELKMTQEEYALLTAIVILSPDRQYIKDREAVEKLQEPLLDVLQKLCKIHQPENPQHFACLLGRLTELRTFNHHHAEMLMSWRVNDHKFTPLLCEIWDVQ
In words: Agonist activity at FXR (unknown origin).

The target in experiment [9] is Platelet glycoprotein 4 (Homo sapiens, UniProt P16671). As to the kind of experiment: Inhibition of N-terminal Flag-tagged human CD36.
The test system of experiment [10] is PC-3. In words: Antiproliferative activity against human PC-3 cells. Type of experiment: functional, cell-based.
Experiment [11] relates to SK-OV-3. In words: Antiproliferative activity against human SK-OV-3 cells. Type of experiment: functional, cell-based.
In experiment [12] the test system is A549. As to the kind of experiment: Antiproliferative activity against human A549 cells. The format is functional, cell-based.

Sequence of Platelet glycoprotein 4 (P16671 whole entry): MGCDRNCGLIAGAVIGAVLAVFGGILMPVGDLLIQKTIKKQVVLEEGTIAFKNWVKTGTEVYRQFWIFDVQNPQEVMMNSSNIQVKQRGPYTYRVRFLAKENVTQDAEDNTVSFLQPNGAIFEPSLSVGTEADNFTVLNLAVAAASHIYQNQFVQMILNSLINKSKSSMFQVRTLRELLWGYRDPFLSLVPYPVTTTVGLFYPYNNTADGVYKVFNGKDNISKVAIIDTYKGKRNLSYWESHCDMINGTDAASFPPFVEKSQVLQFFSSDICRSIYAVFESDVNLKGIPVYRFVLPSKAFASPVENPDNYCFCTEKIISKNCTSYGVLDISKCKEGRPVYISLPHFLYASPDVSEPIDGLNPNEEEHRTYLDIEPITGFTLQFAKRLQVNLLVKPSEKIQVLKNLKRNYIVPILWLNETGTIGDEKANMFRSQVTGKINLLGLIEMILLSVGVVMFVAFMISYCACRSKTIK

In turn, `CC(=O)N1CCC(C(=O)N2CCC(N3CCN(C(=O)c4cc(-c5ccc(C)cc5)nc(-c5ccc(C)cc5)c4)CC3)CC2)CC1` displayed an IC50 in [1] of 76 nM.

With `O=C(c1c2ccccc2cc2ccccc12)N1CCN(C2CCN(C(=O)N3CCOCC3)CC2)CC1`, the IC50 in experiment [1] was found to be 239 nM.

In turn, `CCCCCCCCCCCCCCNC(=O)N[C@H](CC(=O)[O-])C[N+](C)(C)C` returned an IC50 in experiment [2] of 240 nM.

Regarding `CCCCCCCCCCCCCC(=O)Nc1ccc(CP(=O)(O)O)cc1`, the IC50 in experiment [3] is 5.6 nM.

The compound `O=C(c1c2ccccc2cc2ccccc12)N1CCC(N2CCC[C@@H](C(=O)N3CCOCC3)C2)CC1` registered an IC50 in experiment [1] of 116 nM.

For `COc1ccc(CN2CCN(CCCSc3cc(C(C)(C)C)c(O)c(C(C)(C)C)c3)CC2)c(OC)c1OC`, in experiment [4], the midpoint of inhibition, the IC50, lay at 50800 nM.

For the compound `Cc1nc(-c2cc(C(=O)N3CCC(c4ccc(C#N)cc4)CC3)c(C)cc2C2CCC2)n[nH]1`, the IC50 in experiment [1] amounted to 40 nM.

`Cc1cc(C)c(-c2[nH]nc(C)c2C)cc1C(=O)N1CC(c2ccc(C#N)cc2)C1`: the IC50 in [1] came to 20 nM.

Regarding `COc1ccc(-c2ccccc2)cc1NS(=O)(=O)c1cc(Cl)cc(Cl)c1O`, the IC50 in [4] was found to be 130 nM.

Regarding `CCOC(=O)c1sc2c(c1C)c(=O)n(CCO)c(=O)n2CCc1ccccc1`, in [1], the midpoint of inhibition, the IC50, lay at 3.9 nM.

The compound `C=C1C(=O)O[C@H](CCCCCCCC)[C@H]1C(=O)O` registered an IC50 in [1] of 460 nM.

For the compound `COc1cc(C(=O)N2CCC3(CC2)CC(=O)c2cc(-c4cncc(C(=O)O)c4)ccc2O3)cc2c1c(C)cn2C1CC1`, inhibition in experiment [1] was half-maximal at 3 nM (IC50).

On to `CCCCCCCCCCCCCCC[C@@]1(O)C[N+](C)(C)C[C@@H](CC(=O)[O-])O1`, for which, in [5], the Ki came out at 4200 nM.

`COC(=O)c1cc(Cl)c(O)c(S(=O)(=O)Nc2cc(-c3ccccc3)c(F)cc2F)c1`: the IC50 in [4] worked out at 44 nM.

As for `COCc1nc(C(F)(F)F)[nH]c1-c1cc(C(=O)N2CC(c3ccc(C#N)cc3)C2)c(C)cc1C`, in [1], the IC50 stood at 40 nM.

In experiment [4], `CCCCCCOc1cccc(OCCCCNC(=O)N[C@@H](CC(=O)O)CN(C)C)c1` displayed an IC50 of 44 nM.

In the case of `Cc1sc2ncnc(NC3CCN(Cc4ccccc4)C3)c2c1C` (stereo unspecified), in [6], the IC50 amounted to 0.3 nM.

Consider `O=C(NC1(C(=O)N[C@@H]2CC(=O)c3ccccc3N(Cc3cc(C(F)(F)F)cc(C(F)(F)F)c3)C2=O)CC1)c1ccc(F)cc1`, for which, in experiment [7], the IC50 was greater than 75.5 nM.

The compound `O=C1Nc2ccccc2-c2cc(c(F)cc2F)NS(=O)(=O)c2cc1cc(Cl)c2O` displayed an IC50 in [4] of 69.7 nM.

For `CC(C)N(C(=O)n1nnn(-c2c(F)cccc2F)c1=O)c1ccc(C(=O)O)cc1Oc1ccccc1`, the IC50 in experiment [6] worked out at 19 nM.

In [3], `CCc1nc2c(C)cc(-c3ccc(CN(CCO)CCO)cc3)cn2c1NC(=O)NCc1ccc(Cl)cc1` gave an IC50 of 3.98 nM.

For the compound `Cc1cc(-c2nc3ccc(C(=O)O)cc3n2C)ccc1OCc1c(-c2c(Cl)cccc2Cl)noc1C(C)C`, in experiment [8], a half-maximal effect (EC50) was put at 13.4 nM.

Compound `CCCCCCCC/C=C\CCCCCCCC(=O)ON1C(=O)CC(S(=O)(=O)O)C1=O` (stereo unspecified) came in with an IC50 in experiment [9] of 4000 nM.

On to `CC(C)(C)OC(=O)NC1(C(=O)N[C@@H]2CC(=O)c3ccccc3N(Cc3cc(C(F)(F)F)cc(C(F)(F)F)c3)C2=O)CC1`, for which the IC50 in [7] was greater than 75.5 nM.

In the case of `CC(C)(CCCCCC(O)CCCCCC(C)(C)C(=O)O)C(=O)O` [BEMPEDOIC ACID], the half-maximal inhibitory concentration (IC50) in [10] was 26000 nM; in [11] it was 53000 nM; in [12] it was 24000 nM.

Regarding `COc1ccccc1[C@H](Cn1c(=O)n(C(C)(C)C(=O)O)c(=O)c2c(C)c(-c3ncco3)sc21)OC1CCOCC1` [FIRSOCOSTAT], in [1], inhibition was half-maximal at 2.1 nM (IC50).

With `CCCCCCCCCCC[C@@H](C[C@@H]1OC(=O)[C@H]1CCCCCC)OC(=O)[C@H](CC(C)C)NC=O` [ORLISTAT], the IC50 in experiment [6] amounted to 250 nM.

`COc1ccc(CN2CCNCC2)c(OC)c1OC` [TRIMETAZIDINE]: the IC50 in [4] was 759000 nM.

In experiment [3], `C[C@H](CCC(=O)O)[C@H]1CC[C@H]2[C@@H]3[C@@H](O)C[C@@H]4C[C@H](O)CC[C@]4(C)[C@H]3CC[C@]12C` [URSODIOL] gave an IC50 of 2800 nM.

A word on the IC50: it is the concentration at which inhibition is half-maximal. The term Ki denotes the equilibrium dissociation constant of an inhibitor or competing ligand from its target. The term EC50 denotes the concentration that produces a half-maximal response. High values mean lower potency in that assay, low ones higher potency in that assay.
